According to ChEMBL document CHEMBL5113485, “Distal kinetic deuterium isotope effect: Phenyl ring deuteration attenuates N-demethylation of Lu AF35700” (Bioorg Med Chem Lett, 2022):
pKi: −log10 of the molar value.

Tests used:
[1] = molecular target: 5-hydroxytryptamine receptor 1A (Homo sapiens, UniProt P08908); experiment: Displacement of [3H]8-OH-DPAT from recombinant human 5-HT1A receptor measured after 60 mins by scintillation counting analysis
Cytochrome P450 3A4 [2] = molecular target: T1, Cytochrome P450 3A4 (Homo sapiens, UniProt P08684); experiment: Drug metabolism assessed as recombinant human liver CYP3A4-mediated formation of d5-desmethyl-zicronapine at 10 uM measured after 15 to 180 mins in presence of zicronapine by LC-MS/MS analysis; format: ADME; conditions: recombinant enzyme, time 15-180 min
[3] = Drug metabolism in human liver microsomes assessed as formation of desmethyl-zicronapine at 10 uM measured after 15 to 180 mins in presence of NADPH regenerating system by LC-MS/MS analysis; format: ADME, Microsome; conditions: time 15-180 min
[4] = Drug metabolism in human liver microsomes assessed as formation of d5-desmethyl-zicronapine at 10 uM measured after 15 to 180 mins in presence of NADPH regenerating system by LC-MS/MS analysis; format: ADME, Microsome; conditions: time 15-180 min
D(1B) dopamine receptor = D(1B) dopamine receptor (Homo sapiens, UniProt P21918); experiment: Displacement of [3H]SCH 23390 from recombinant human D5 receptor measured after 60 mins by scintillation counting analysis
[5] = molecular target: 5-hydroxytryptamine receptor 1B (Rattus norvegicus, UniProt P28564); experiment: Displacement of [125I]CYP from rat brain 5HT1B receptor measured after 120 mins by scintillation counting analysis
D(4) dopamine receptor = D(4) dopamine receptor (Homo sapiens, UniProt P21917); experiment: Displacement of [3H]methyl-spiperone from recombinant human D4.4 receptor measured after 60 mins by scintillation counting analysis
[6] = molecular target: Alpha-2B adrenergic receptor (Homo sapiens, UniProt P18089); experiment: Displacement of [3H]RX 821002 from recombinant human alpha2B receptor measured after 60 mins by scintillation counting analysis
D(3) dopamine receptor = D(3) dopamine receptor (Homo sapiens, UniProt P35462); experiment: Displacement of [3H]methyl-spiperone from recombinant human D3 receptor measured after 60 mins by scintillation counting analysis
Histamine H1 receptor = Histamine H1 receptor (Homo sapiens, UniProt P35367); experiment: Displacement of [3H]pyrilamine from recombinant human H1 receptor measured after 60 mins by scintillation counting analysis
[7] = molecular target: 5-hydroxytryptamine receptor 2C (Homo sapiens, UniProt P28335); experiment: Displacement of [125I](+/-)DOI from recombinant human 5-HT2C receptor measured after 60 mins by scintillation counting analysis
[8] = molecular target: Sodium-dependent dopamine transporter (Homo sapiens, UniProt Q01959); experiment: Displacement of [3H]BTCP from recombinant human DAT measured after 120 mins by scintillation counting analysis
[9] = molecular target: 5-hydroxytryptamine receptor 2B (Homo sapiens, UniProt P41595); experiment: Displacement of [125I](+/-)DOI from recombinant human 5-HT2B receptor measured after 60 mins by scintillation counting analysis
[10] = molecular target: Alpha-1A adrenergic receptor (Homo sapiens, UniProt P35348); experiment: Displacement of [3H]prazosin from recombinant human alpha1A receptor measured after 60 mins by scintillation counting analysis
[11] = molecular target: Alpha-1B adrenergic receptor (Homo sapiens, UniProt P35368); experiment: Displacement of [3H]prazosin from recombinant human alpha1B receptor measured after 60 mins by scintillation counting analysis
[12] = molecular target: Alpha-1D adrenergic receptor (Homo sapiens, UniProt P25100); experiment: Displacement of [3H]prazosin from recombinant human alpha1D receptor measured after 60 mins by scintillation counting analysis
[13] = molecular target: Alpha-2C adrenergic receptor (Homo sapiens, UniProt P18825); experiment: Displacement of [3H]RX 821002 from recombinant human alpha2C receptor measured after 60 mins by scintillation counting analysis
[14] = molecular target: Alpha-2A adrenergic receptor (Homo sapiens, UniProt P08913); experiment: Displacement of [3H]RX 821002 from recombinant human alpha2A receptor measured after 60 mins by scintillation counting analysis
[15] = molecular target: 5-hydroxytryptamine receptor 7 (Homo sapiens, UniProt P34969); experiment: Displacement of [3H]LSD from recombinant human 5-HT7 receptor measured after 120 mins by scintillation counting analysis
Cytochrome P450 2C19 [16] = molecular target: T2, Cytochrome P450 2C19 (Homo sapiens, UniProt P33261); experiment: Drug metabolism assessed as recombinant human liver CYP2C19-mediated formation of d5-desmethyl-zicronapine at 10 uM measured after 15 to 180 mins in presence of zicronapine by LC-MS/MS analysis; format: ADME; conditions: recombinant enzyme, time 15-180 min
[17] = molecular target: 5-hydroxytryptamine receptor 6 (Homo sapiens, UniProt P50406); experiment: Displacement of [3H]LSD from recombinant human 5-HT6 receptor measured after 120 mins by scintillation counting analysis
D(1A) dopamine receptor = D(1A) dopamine receptor (Homo sapiens, UniProt P21728); experiment: Displacement of [3H]SCH 23390 from recombinant human D1 receptor measured after 60 mins by scintillation counting analysis
[18] = molecular target: 5-hydroxytryptamine receptor 2A (Homo sapiens, UniProt P28223); experiment: Displacement of [125I](+/-)DOI from recombinant human 5-HT2A receptor measured after 60 mins by scintillation counting analysis
D(2) dopamine receptor = D(2) dopamine receptor (Homo sapiens, UniProt P14416); experiment: Displacement of [3H]7-OH-DPAT from recombinant human D2S receptor measured after 60 mins by scintillation counting analysis
Cytochrome P450 3A4 [19] = molecular target: T1, Cytochrome P450 3A4; experiment: Drug metabolism assessed as recombinant human liver CYP3A4-mediated formation of desmethyl-zicronapine at 10 uM measured after 15 to 180 mins in presence of Lu AF35700 by LC-MS/MS analysis; format: ADME; conditions: recombinant enzyme, time 15-180 min
Cytochrome P450 2C19 [20] = molecular target: T2, Cytochrome P450 2C19; experiment: Drug metabolism assessed as recombinant human liver CYP2C19-mediated formation of d5-desmethyl-zicronapine at 10 uM measured after 15 to 180 mins in presence of Lu AF35700 by LC-MS/MS analysis; format: ADME; conditions: recombinant enzyme, time 15-180 min
Cytochrome P450 3A4 [21] = molecular target: T1, Cytochrome P450 3A4; experiment: Drug metabolism assessed as recombinant human liver CYP3A4-mediated formation of desmethyl-zicronapine at 10 uM measured after 15 to 180 mins in presence of d5-zicronapine by LC-MS/MS analysis; format: ADME; conditions: recombinant enzyme, time 15-180 min
Cytochrome P450 2C19 [22] = molecular target: T2, Cytochrome P450 2C19; experiment: Drug metabolism assessed as recombinant human liver CYP2C19-mediated formation of desmethyl-zicronapine at 10 uM measured after 15 to 180 mins in presence of Lu AF35700 by LC-MS/MS analysis; format: ADME; conditions: recombinant enzyme, time 15-180 min
Cytochrome P450 2C19 [23] = molecular target: T2, Cytochrome P450 2C19; experiment: Drug metabolism assessed as recombinant human liver CYP2C19-mediated formation of desmethyl-zicronapine at 10 uM measured after 15 to 180 mins in presence of d5-zicronapine by LC-MS/MS analysis; format: ADME; conditions: recombinant enzyme, time 15-180 min
Cytochrome P450 3A4 [24] = molecular target: T1, Cytochrome P450 3A4; experiment: Drug metabolism assessed as recombinant human liver CYP3A4-mediated formation of d5-desmethyl-zicronapine at 10 uM measured after 15 to 180 mins in presence of Lu AF35700 by LC-MS/MS analysis; format: ADME; conditions: recombinant enzyme, time 15-180 min

T2 sequence (P33261 whole entry): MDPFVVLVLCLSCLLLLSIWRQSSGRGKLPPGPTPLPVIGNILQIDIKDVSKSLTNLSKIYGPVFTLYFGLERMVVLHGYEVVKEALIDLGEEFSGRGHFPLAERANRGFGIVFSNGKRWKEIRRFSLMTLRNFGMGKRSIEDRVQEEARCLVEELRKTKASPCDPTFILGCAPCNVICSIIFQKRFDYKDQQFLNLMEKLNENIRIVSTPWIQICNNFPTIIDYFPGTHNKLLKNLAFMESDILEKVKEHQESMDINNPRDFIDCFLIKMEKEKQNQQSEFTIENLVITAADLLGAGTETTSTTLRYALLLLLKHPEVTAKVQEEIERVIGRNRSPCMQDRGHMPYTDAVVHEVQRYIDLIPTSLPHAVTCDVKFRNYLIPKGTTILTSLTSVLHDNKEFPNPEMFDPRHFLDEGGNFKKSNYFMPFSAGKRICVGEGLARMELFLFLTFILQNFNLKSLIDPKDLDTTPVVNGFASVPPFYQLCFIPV
T1 sequence (P08684 whole entry): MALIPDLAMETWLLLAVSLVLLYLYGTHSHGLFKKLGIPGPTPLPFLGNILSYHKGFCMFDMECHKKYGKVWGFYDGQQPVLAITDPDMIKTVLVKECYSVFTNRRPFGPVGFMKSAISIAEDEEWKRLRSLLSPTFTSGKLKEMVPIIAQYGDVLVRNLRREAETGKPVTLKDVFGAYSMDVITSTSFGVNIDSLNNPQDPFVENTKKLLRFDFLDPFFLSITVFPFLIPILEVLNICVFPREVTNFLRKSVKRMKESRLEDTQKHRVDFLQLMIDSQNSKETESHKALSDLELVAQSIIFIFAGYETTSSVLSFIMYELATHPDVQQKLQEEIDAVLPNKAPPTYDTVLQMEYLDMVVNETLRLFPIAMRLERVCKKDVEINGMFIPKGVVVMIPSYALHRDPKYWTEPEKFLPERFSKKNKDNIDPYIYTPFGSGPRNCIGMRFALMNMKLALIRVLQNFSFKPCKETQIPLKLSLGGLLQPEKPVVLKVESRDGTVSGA
Sequence of Alpha-1D adrenergic receptor (P25100 whole entry): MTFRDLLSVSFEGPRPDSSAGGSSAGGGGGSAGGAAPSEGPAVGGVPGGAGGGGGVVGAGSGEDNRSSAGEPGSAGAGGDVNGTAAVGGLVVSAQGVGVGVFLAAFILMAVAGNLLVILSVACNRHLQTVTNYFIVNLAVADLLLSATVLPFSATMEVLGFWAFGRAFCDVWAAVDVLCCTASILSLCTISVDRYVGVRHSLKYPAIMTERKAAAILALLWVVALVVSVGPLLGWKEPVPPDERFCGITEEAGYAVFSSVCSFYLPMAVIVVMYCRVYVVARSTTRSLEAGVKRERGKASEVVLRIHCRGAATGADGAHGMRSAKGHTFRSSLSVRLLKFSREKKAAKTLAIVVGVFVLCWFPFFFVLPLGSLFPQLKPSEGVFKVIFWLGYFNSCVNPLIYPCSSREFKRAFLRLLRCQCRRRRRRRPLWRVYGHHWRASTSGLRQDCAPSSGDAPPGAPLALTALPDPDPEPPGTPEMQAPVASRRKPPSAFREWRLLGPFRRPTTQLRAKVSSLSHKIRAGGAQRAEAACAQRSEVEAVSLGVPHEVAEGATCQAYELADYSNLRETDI
Sequence of 5-hydroxytryptamine receptor 2C (P28335 whole entry): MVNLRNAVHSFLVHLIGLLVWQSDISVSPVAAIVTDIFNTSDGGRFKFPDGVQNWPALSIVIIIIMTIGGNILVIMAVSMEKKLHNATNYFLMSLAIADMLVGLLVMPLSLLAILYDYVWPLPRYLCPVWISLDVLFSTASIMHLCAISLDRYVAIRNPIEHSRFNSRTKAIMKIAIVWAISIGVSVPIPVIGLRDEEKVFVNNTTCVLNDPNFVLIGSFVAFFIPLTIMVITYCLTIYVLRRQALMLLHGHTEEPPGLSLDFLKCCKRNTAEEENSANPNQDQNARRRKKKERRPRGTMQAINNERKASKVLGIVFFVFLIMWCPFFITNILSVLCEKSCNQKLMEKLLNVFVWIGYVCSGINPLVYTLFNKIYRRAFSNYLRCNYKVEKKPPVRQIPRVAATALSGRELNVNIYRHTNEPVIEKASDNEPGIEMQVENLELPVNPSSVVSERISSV
Sequence of D(4) dopamine receptor (P21917 whole entry): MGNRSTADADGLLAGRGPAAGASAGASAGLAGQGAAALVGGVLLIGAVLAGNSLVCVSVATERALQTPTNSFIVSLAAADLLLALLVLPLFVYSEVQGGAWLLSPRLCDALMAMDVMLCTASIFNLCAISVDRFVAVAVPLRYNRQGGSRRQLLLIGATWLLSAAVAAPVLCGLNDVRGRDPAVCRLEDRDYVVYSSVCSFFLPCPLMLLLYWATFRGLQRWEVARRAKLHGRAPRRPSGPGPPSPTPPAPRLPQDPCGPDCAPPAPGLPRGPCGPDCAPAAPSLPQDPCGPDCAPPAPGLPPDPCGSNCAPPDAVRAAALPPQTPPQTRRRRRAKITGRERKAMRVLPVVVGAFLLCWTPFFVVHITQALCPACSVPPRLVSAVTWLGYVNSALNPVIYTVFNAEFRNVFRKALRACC
Sequence of 5-hydroxytryptamine receptor 1A (P08908 whole entry): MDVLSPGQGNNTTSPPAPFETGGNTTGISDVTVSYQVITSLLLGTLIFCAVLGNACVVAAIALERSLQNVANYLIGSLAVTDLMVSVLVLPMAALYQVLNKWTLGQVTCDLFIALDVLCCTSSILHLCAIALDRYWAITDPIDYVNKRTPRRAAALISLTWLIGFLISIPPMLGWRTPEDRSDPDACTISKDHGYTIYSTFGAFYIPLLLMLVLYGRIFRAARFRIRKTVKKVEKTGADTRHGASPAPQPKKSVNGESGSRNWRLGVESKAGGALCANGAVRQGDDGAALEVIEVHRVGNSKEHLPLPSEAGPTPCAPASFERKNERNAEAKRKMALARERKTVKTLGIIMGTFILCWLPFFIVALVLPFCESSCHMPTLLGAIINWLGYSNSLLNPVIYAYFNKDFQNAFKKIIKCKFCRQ
Sequence of Histamine H1 receptor (P35367 whole entry): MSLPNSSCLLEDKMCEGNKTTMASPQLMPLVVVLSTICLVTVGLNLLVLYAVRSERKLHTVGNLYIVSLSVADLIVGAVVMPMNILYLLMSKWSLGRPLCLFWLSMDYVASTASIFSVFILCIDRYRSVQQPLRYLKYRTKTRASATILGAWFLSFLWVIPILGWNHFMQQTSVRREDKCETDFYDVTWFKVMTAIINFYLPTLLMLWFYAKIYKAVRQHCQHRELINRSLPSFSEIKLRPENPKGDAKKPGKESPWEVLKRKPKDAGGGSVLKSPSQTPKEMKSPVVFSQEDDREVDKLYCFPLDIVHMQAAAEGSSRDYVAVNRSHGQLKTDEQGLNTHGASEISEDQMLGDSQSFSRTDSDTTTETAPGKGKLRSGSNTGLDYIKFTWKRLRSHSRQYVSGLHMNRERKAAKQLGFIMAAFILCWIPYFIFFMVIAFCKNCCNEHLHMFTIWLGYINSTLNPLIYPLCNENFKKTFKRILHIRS
Sequence of Alpha-2B adrenergic receptor (P18089 whole entry): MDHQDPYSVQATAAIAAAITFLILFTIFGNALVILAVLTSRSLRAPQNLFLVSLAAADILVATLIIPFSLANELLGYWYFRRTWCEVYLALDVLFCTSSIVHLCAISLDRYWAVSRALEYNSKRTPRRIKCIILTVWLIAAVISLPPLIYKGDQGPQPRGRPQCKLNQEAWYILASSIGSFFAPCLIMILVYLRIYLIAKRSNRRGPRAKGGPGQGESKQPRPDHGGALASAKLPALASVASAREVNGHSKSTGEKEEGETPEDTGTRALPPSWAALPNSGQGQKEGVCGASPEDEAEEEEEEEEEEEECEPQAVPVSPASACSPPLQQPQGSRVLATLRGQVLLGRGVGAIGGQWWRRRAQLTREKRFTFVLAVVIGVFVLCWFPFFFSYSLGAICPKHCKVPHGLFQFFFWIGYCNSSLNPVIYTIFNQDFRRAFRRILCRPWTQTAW
Sequence of D(3) dopamine receptor (P35462 whole entry): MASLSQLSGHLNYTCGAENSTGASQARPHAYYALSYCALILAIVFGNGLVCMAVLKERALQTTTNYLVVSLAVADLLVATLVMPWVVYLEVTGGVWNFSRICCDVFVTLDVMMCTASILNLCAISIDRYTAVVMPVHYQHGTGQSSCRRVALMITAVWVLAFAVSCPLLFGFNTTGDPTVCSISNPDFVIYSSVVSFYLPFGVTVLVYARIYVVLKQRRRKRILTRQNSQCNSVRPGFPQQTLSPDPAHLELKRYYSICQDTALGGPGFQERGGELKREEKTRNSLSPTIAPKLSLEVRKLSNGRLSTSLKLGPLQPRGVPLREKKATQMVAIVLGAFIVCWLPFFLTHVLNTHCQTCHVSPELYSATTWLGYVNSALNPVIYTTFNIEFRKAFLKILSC
Sequence of Alpha-1A adrenergic receptor (P35348 whole entry): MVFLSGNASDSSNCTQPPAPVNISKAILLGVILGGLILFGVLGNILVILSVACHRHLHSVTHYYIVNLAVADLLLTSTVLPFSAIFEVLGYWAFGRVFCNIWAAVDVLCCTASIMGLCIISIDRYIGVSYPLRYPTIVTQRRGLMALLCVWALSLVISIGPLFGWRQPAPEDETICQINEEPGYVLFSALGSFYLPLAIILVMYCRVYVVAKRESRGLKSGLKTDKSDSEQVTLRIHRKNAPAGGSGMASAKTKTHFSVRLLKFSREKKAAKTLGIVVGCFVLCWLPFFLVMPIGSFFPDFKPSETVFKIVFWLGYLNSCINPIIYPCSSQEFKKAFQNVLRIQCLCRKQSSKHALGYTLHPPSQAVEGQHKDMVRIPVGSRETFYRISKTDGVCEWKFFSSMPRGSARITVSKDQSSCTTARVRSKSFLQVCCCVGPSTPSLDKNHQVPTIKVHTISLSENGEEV

pKi [1]	Drug metabolism (Cytochrome P450 3A4 [2])	Drug metabolism [3]	Drug metabolism [4]	pKi (D(1B) dopamine receptor)	pKi [5]	pKi (D(4) dopamine receptor)	pKi [6]	pKi (D(3) dopamine receptor)	pKi (Histamine H1 receptor)	pKi [7]	pKi [8]	pKi [9]	pKi [10]	pKi [11]	pKi [12]	pKi [13]	pKi [14]	pKi [15]	Drug metabolism (Cytochrome P450 2C19 [16])	SMILES	further results
7.05	Metabolite_Detected	Metabolite_Detected	Metabolite_Detected	9.43	6.77	8.17	7.33	7.80	8.40	8.82	5.38	9.40	8.47	8.54	8.02	8.01	6.25	8.42	Metabolite_Detected	[2H]c1c([2H])c([2H])c([C@@H]2C[C@@H](N3CCN(C([2H])([2H])[2H])C(C)(C)C3)c3cc(Cl)ccc32)c([2H])c1[2H]	–
–	Metabolite_Detected	Metabolite_Detected	Metabolite_Detected	–	–	–	–	–	–	–	–	–	–	–	–	–	–	–	Metabolite_Detected	[2H]c1c([2H])c([2H])c([C@@H]2C[C@@H](N3CCN(C)C(C)(C)C3)c3cc(Cl)ccc32)c([2H])c1[2H]	–
6.38	–	–	–	9.17	6.18	7.96	6.31	7.23	8.18	8.96	6.29	9.41	7.89	7.96	7.46	6.80	5.60	7.96	–	[2H]c1c([2H])c([2H])c([C@@H]2C[C@@H](N3CCNC(C)(C)C3)c3cc(Cl)ccc32)c([2H])c1[2H]	pKi [17]: 9.14; pKi (D(1A) dopamine receptor): 9.00; pKi [18]: 9.08; pKi (D(2) dopamine receptor): 7.96
–	–	–	–	–	–	–	–	–	–	–	–	–	–	–	–	–	–	–	–	CN1CCN([C@@H]2C[C@@H](c3ccccc3)c3ccc(Cl)cc32)CC1(C)C [ZICRONAPINE]	Drug metabolism (Cytochrome P450 3A4 [19]): Metabolite_Detected; Drug metabolism (Cytochrome P450 2C19 [20]): Metabolite_Detected; Drug metabolism (Cytochrome P450 3A4 [21]): Metabolite_Detected; Drug metabolism (Cytochrome P450 2C19 [22]): Metabolite_Detected; Drug metabolism (Cytochrome P450 2C19 [23]): Metabolite_Detected; Drug metabolism (Cytochrome P450 3A4 [24]): Metabolite_Detected
